Data from US10947210B2 (priority 2015, dated 2021).
Like-named read-outs stand apart in the source and are kept apart here.

Key:
[1] = molecular target: HCV RNA-dependent RNA polymerase (NS5B) (Hepatitis C virus genotype 1b (isolate BK) (HCV), UniProt P26663); assay: RNA-Dependent RNA HCV NS5B (polymerase) Assay and IC50 Determination; assay type: biochemical; settings: purified HCV NS5B polymerase, polyA:U16 substrate, 32P-UTP incorporation
Summary of the method: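 Purified NS5B was incubated with 0.5 uM polyA:U16, 10 μM UTP plus ^32P-UTP in 50 mM Hepes-KOH pH 7.5, 5 mM MgCl2, 5 mM DTT, 2% glycerol and 0.01% Triton X-100. Inhibitor reactions ran 60 min at 37° C, and radiolabelled RNA product was quantified after filter capture. IC50 values were obtained from concentration series.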

[2] = tested on: HCV subgenomic RNA replicon in Huh-luc/neo-ET cells; assay: HCV Replicon Assay and EC50 Determination; assay type: cell-based; settings: Hepatitis C virus, 72 hours, luciferase reporter activity
Experimental: HCV Replicon Assay and EC50 Determination.
HCV replicon assay is based on the luciferase reporter cell line (Huh-luc/neo-ET). This reporter cell line is a human liver carcinoma cell line (Huh-7) stably transfected with an autonomously replicating bicistronic HCV subgenomic RNA replicon (Lohmann et al., 1999, Science, 285, 110-113). Inhibition of HCV RNA replication was monitored through analysis of reporter luciferase activity. Briefly, HCV replicon cells were incubated with inhibitors for 72 hours at 37° C. After the incubation, duplicate plates were treated and incubated in parallel for assessment of cellular toxicity by XTT staining and anti-HCV activity by measurement of luciferase reporter activity. Either human interferon alpha 2B or ribavirin was used as a reference compound. EC50 values were determined using GraFit (Erithaus software) or Excel.
Table 2 presents EC50 data obtained using this HCV replicaon assay to test representative compounds. Data are presented as follows: “+++” means <0.1 μM; “++” means ≥0.1 μM and <1.0 μM; “+” means ≥1.0 μM.

Chain of HCV RNA-dependent RNA polymerase (NS5B) (P26663 2420-3010): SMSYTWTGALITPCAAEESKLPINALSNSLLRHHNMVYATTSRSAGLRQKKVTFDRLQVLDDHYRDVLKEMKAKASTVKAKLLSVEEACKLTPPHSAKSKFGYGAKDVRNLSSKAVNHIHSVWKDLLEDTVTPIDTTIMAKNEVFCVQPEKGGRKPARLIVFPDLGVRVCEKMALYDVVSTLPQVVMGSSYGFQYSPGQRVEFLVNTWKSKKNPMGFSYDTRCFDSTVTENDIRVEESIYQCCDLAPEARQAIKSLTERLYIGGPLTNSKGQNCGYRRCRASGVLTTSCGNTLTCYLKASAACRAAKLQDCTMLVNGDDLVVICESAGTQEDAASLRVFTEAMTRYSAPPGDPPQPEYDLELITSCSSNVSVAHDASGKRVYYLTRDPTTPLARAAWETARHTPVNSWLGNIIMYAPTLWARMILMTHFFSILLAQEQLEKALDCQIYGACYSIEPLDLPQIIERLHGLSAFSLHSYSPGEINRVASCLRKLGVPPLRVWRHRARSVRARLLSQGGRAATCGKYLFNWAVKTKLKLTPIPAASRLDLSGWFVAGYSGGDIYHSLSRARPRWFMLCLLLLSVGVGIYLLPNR

Structure (SMILES)	IC50 ([1]; read-out: IC50) [µM]	EC50 [2] [nM]	IC50 ([1]; IC50 (μM)) [µM]
CNC(=O)c1c(-c2ccc(F)cc2)oc2cc(N(CCOCCOCc3ccc(F)c(C(=O)O)c3)S(C)(=O)=O)c(C3CC3)cc12 [Compound 17A-8A, 5-[2-(2-{[5-Cyclopropyl-2-(4-fluoro-phenyl)-3-methylcarbamoyl-benzofuran-6-yl]-methanesulfonyl-amino}-ethoxy)-ethoxymethyl]-2-fluoro-benzoic Acid]	0.1 to 1	< 100	
CNC(=O)c1c(-c2ccc(F)cc2)oc2cc(N(CCOCCCOCc3cccc(C(=O)/C=C(\O)C(=O)O)c3)S(C)(=O)=O)c(C3CC3)cc12 [Compound 03-8B, 4-{3-[3-(2-{[5-Cyclopropyl-2-(4-fluoro-phenyl)-3-methylcarbamoyl-benzofuran-6-yl]-methanesulfonyl-amino}-ethoxy)-propoxymethyl]-phenyl}-2-hydroxy-4-oxo-but-2-enoic Acid]	> 1	< 100	
CNC(=O)c1c(-c2ccc(F)cc2)oc2cc(N(CCOCCOCc3cccc(C(=O)O)c3)S(C)(=O)=O)c(C3CC3)cc12 [Compound 06-7C, 3-[2-(2-{[5-Cyclopropyl-2-(4-fluoro-phenyl)-3-methylcarbamoyl-benzofuran-6-yl]-methanesulfonyl-amino}-ethoxy)-ethoxymethyl]-benzoic Acid]	0.1 to 1	< 100	
CNC(=O)c1c(-c2ccc(F)cc2)oc2cc(N(CC(=O)NC(C)(C)C(=O)NCc3cccc(C(=O)C=C(O)C(=O)O)c3)S(C)(=O)=O)c(C3CC3)cc12 [Compound 09-14C, 4-(3-{[2-(2-{[5-Cyclopropyl-2-(4-fluoro-phenyl)-3-methylcarbamoyl-benzofuran-6-yl]-methanesulfonyl-amino}-acetylamino)-2-methyl-propionylamino]-methyl}-phenyl)-2-hydroxy-4-oxo-but-2-enoic Acid]	> 1	100 to 1000	
CNC(=O)c1c(-c2ccc(F)cc2)oc2cc(N(CCCCOCCc3ccc(C(=O)O)cc3)S(C)(=O)=O)c(C3CC3)cc12 [Compound 13-8C, 4-(2-(4-(N-(5-cyclopropyl-2-(4-fluorophenyl)-3-(methylcarbamoyl)benzofuran-6-yl)-methylsulfonamido)butoxy)-ethyl)benzoic Acid]	0.1 to 1	< 100	
CNC(=O)c1c(-c2ccc(F)cc2)oc2cc(N(CCOCCOCc3cccc(C(=O)/C=C(\O)C(=O)O)c3)S(C)(=O)=O)c(C3CC3)cc12 [Compound 02-10A, 4-{3-[2-(2-{[5-Cyclopropyl-2-(4-fluoro-phenyl)-3-methylcarbamoyl-benzofuran-6-yl]-methanesulfonyl-amino}-ethoxy)-ethoxymethyl]-phenyl}-2-hydroxy-4-oxo-but-2-enoic Acid]	0.1 to 1	< 100	
CNC(=O)c1c(-c2ccc(F)cc2)oc2cc(N(CCOCCOCc3ccc(OC)c(C(=O)O)c3)S(C)(=O)=O)c(C3CC3)cc12 [Compound 17B-8, 5-[2-(2-{[5-Cyclopropyl-2-(4-fluoro-phenyl)-3-methylcarbamoyl-benzofuran-6-yl]-methanesulfonyl-amino}-ethoxy)-ethoxymethyl]-2-methoxy-benzoic Acid]	0.1 to 1	100 to 1000	
CNC(=O)c1c(-c2ccc(F)cc2)oc2cc(N(CCOCCOCCOCCOCCOCCOCc3cccc(C(=O)/C=C(\O)C(=O)O)c3)S(C)(=O)=O)c(C3CC3)cc12 [Compound 02-10E, 4-(3-{2-[2-(2-{2-[2-(2-{[5-Cyclopropyl-2-(4-fluoro-phenyl)-3-methylcarbamoyl-benzofuran-6-yl]-methanesulfonyl-amino}-ethoxy)-ethoxy]-ethoxy}-ethoxy)-ethoxy]-ethoxymethyl}-phenyl)-2-hydroxy-4-oxo-but-2-enoic Acid]	> 1	100 to 1000	
CNC(=O)c1c(-c2ccc(F)cc2)oc2cc(N(CCCCCCCc3ccc(C(=O)O)cc3)S(C)(=O)=O)c(C3CC3)cc12 [Compound 13-8D, 4-(7-{[5-Cyclopropyl-2-(4-fluoro-phenyl)-3-methylcarbamoyl-benzofuran-6-yl]-methanesulfonyl-amino}-heptyl)-benzoic Acid]	0.1 to 1	< 100	
CNC(=O)c1c(-c2ccc(F)cc2)oc2cc(N(CCCCCOCc3ccc(C(=O)O)cc3)S(C)(=O)=O)c(C3CC3)cc12 [Compound 16-7, 4-(5-{[5-Cyclopropyl-2-(4-fluoro-phenyl)-3-methylcarbamoyl-benzofuran-6-yl]-methanesulfonyl-amino}-pentyloxymethyl)-benzoic Acid]	0.1 to 1	< 100	
CNC(=O)c1c(-c2ccc(F)cc2)oc2cc(N(CCOCCOCc3ccc(C(=O)/C=C(\O)C(=O)O)cc3)S(C)(=O)=O)c(C3CC3)cc12 [Compound 02-10F, 4-{4-[2-(2-{[5-Cyclopropyl-2-(4-fluoro-phenyl)-3-methylcarbamoyl-benzofuran-6-yl]-methanesulfonyl-amino}-ethoxy)-ethoxymethyl]-phenyl}-2-hydroxy-4-oxo-but-2-enoic Acid]	> 1	< 100	
CNC(=O)c1c(-c2ccc(F)cc2)oc2cc(N(CCOCCCc3cccc(C(=O)/C=C(\O)C(=O)O)c3)S(C)(=O)=O)c(C3CC3)cc12 [Compound 22-12, 4-(3-(3-(2-(N-(5-cyclopropyl-2-(4-fluorophenyl)-3-(methylcarbamoyl)benzofuran-6-yl)methylsulfonamido)-ethoxy)-propyl)-phenyl)-2-hydroxy-4-oxobut-2-enoic Acid]	> 1	< 100	
CNC(=O)c1c(-c2ccc(F)cc2)oc2cc(N(CCOCCOCCOCC(=O)NO)S(C)(=O)=O)c(C3CC3)cc12 [Compound 23-6C, 5-Cyclopropyl-2-(4-fluoro-phenyl)-6-({2-[2-(2-hydroxycarbamoylmethoxy-ethoxy)-ethoxy]-ethyl}-methanesulfonyl-amino)-benzofuran-3-carboxylic Acid Methylamide]		< 100	0.1 to 1
CNC(=O)c1c(-c2ccc(F)cc2)oc2cc(N(CCOCCOCCOC(C(=O)O)c3ccccc3)S(C)(=O)=O)c(C3CC3)cc12 (stereo not drawn) [Compound 25-5, {2-[2-(2-{[5-Cyclopropyl-2-(4-fluoro-phenyl)-3-methylcarbamoyl-benzofuran-6-yl]-methanesulfonyl-amino}-ethoxy)-ethoxy]-ethoxy}-phenyl-acetic Acid]	0.1 to 1	100 to 1000	
CNC(=O)c1c(-c2ccc(F)cc2)oc2cc(N(CC(=O)NC(C)C(=O)NCc3cccc(C(=O)C=C(O)C(=O)O)c3)S(C)(=O)=O)c(C3CC3)cc12 (stereo not drawn) [Compound 09-14F, 4-(3-{[2-(2-{[5-Cyclopropyl-2-(4-fluoro-phenyl)-3-methylcarbamoyl-benzofuran-6-yl]-methanesulfonyl-amino}-acetylamino)-propionylamino]-methyl}-phenyl)-2-hydroxy-4-oxo-but-2-enoic Acid]	> 1	100 to 1000	
CNC(=O)c1c(-c2ccc(F)cc2)oc2cc(N(CCOCCOCc3ccccc3C(=O)O)S(C)(=O)=O)c(C3CC3)cc12 [Compound 06-7A, 2-[2-(2-{[5-Cyclopropyl-2-(4-fluoro-phenyl)-3-methylcarbamoyl-benzofuran-6-yl]-methanesulfonyl-amino}-ethoxy)-ethoxymethyl]-benzoic Acid]	0.1 to 1	< 100	
CNC(=O)c1c(-c2ccc(F)cc2)oc2cc(N(CCOC(=O)CNC(=O)CCCC(=O)O)S(C)(=O)=O)c(C3CC3)cc12 [Compound 08-6, 4-[(2-{[5-Cyclopropyl-2-(4-fluoro-phenyl)-3-methylcarbamoyl-benzofuran-6-yl]-methanesulfonyl-amino}-ethoxycarbonylmethyl)-carbamoyl]-butyric Acid]		100 to 1000	0.1 to 1
CNC(=O)c1c(-c2ccc(F)cc2)oc2cc(N(CCOCCOCCOCC(=O)O)S(C)(=O)=O)c(C3CC3)cc12 [Compound 23-6A, {2-[2-(2-{[5-Cyclopropyl-2-(4-fluoro-phenyl)-3-methylcarbamoyl-benzofuran-6-yl]-methanesulfonyl-amino}-ethoxy)-ethoxy]-ethoxy}-acetic Acid]	0.1 to 1	100 to 1000	
